Experimental findings from US20260184807A1, “Methods for Treating Rheumatoid Arthritis Using a Syndecan-1 Inhibitor or Syntenin-1 Inhibitor” (The United States Government as represented by the …, priority 2022, published 2026) are described below.

One assay has as its system RA ST explants. The assay can be described thus: Rheumatoid arthritis explants stimulated with Syntenin-1 (qRT-PCR, ELISA). The assay is classed as cell-based, human. As to conditions: Syntenin-1 5000 ng/ml 6-8 h, mTOR1i 1 μM. On the procedure: FIGS. 19A-R show Syntenin1-induced metabolic activity fine-tunes transcription of angiogenic and inflammatory factors in RA ST explants. […] RA STs were stimulated with 1000 ng/ml Syntenin-1 for 6-8 h. Synovial tissues were harvested for transcriptome analysis by qRT-PCR and supernatants were used for protein quantification by ELISA. The transcription level of JAG1 (FIG. 19F), Notch1 (FIG. 19G), VEGF (FIG. 19H), VEGFR1 (FIG. 19I), and RAPTOR (FIG. 19J) was quantified by real-time RT-PCR, n=6-8. RA explants were untreated or stimulated with 5000 ng/ml Syntenin-1 in the presence or absence of SDC1-Ab (1:100), HIF1αi (2 μM), or mTOR1i (IμM) for 6-8 h. The transcription levels of RAPTOR (FIG. 19K, n=3), VEGF (FIG. 19L, n=5), IL-1β (FIG. 19M, n=8), CCL5 (FIG. 19N, n=6), IL-6 (FIG. 19O, n=6), IL-8 (FIG. 19P, n=6), CCL2 (FIG. 19Q, n=8) were evaluated by qRT-PCR or ELISA. […] Data are presented as mean±SEM: significant differences were determined by the Mann-Whitney test, 2way ANOVA, or one-way ANOVA. *p<0.05, **p<0.01, ***p<0.001, ****p<0.0001.
RheumatoidArthritis Explants. RA ST (30 mg) was cut into small pieces to allow proper access to stimuli and were starved o/n in 0% FBS RPMI with or without SDC1-Ab (1:100), mTOR1i (1 μM), and HIF1αi ([…]). […] Tissues were harvested for transcriptome analysis and supernatants were used for protein quantification by ELISA.

The test system of the next assay is HUVECs. In words: Metabolite quantification in Syntenin-1 treated HUVECs (colorimetric assay). It counts as cell-based, human. As to conditions: Syntenin-1 1000 ng/ml 24 h, HIF1αi 2 μM, mTORi 1 μM, FIGS. 13I-K. On the procedure:
HUVECs were treated with 20 Syntenin-1 (1000 ng/ml) for 0-60 mins to detect expression of GLUT1. HK2. PFK2, cMYC. HIF1α, and LDHA (FIG. 13B) or 0-48 h to detect HK2, PFK2, mTOR/RAPTOR and LDHA (FIG. 13C) and actin was visualized as equal loading, (n=3). HUVECs were treated with PBS or Syntenin-1 (1000 ng/ml) in the presence or absence of 2-DG (5 mM), cMYCi (50 μM) and/or mTORi (1 μM) or HIF1αi (2 μM) to quantify transcription of HIF1α (FIG. 13E, n=10), RAPTOR (FIG. 13F, n=7). TNF (FIG. 13H, n=5). […] HUVECs were treated with PBS or Syntenin-1 (1000 ng/ml) in the presence or absence of SDC-1 Ab (SDCab: 1:100). […] Data are presented as mean±SEM; significant differences were determined by the Mann-Whitney test, 2way ANOVA, or one-way ANOVA. *p<0.05. **p<0.01, ***p<0.001, ****p<0.0001.
FIGS. 20A-F show blood Syntenin-1 and SDC-1 relative levels are unaffected by RA therapy and glycolytic metabolites can modulate inflammatory factors and oxidative metabolites in Syntenin-1 reprogrammed endothelial cells. Relative expression of Syntenin-1 (FIG. 20A) or SDC-1 (FIG. 20B) was determined by RNAseq (Lewis M J, et al. Cell reports. 2019; 28:2455-2470 e2455) in blood from RA non-responsive (Non-R)(ΔDAS28≤0.6, n=16) or those with moderate (ΔDAS28≤1.2 & >0.6, n=22) or good response (ΔDAS28>1.2, n=21). […]
Metabolite quantification. […]

Take `CO[C@H]1C[C@@H]2CC[C@@H](C)[C@@](O)(O2)C(=O)C(=O)N2CCCC[C@H]2C(=O)O[C@H]([C@H](C)C[C@@H]2CC[C@@H](OCCO)[C@H](OC)C2)CC(=O)[C@H](C)/C=C(\C)[C@@H](O)[C@@H](OC)C(=O)[C@H](C)C[C@H](C)/C=C/C=C/C=C/1C` [mTORi, Everolimus]: in the assay on RA ST explants (FIGS. 19Q-R), the “CCL2 transcription and TNF secretion” value is reported as “intercepted”. Moreover, in the assay on RA ST explants (HIF1αi 2 μM, FIG. 19K), the “Syntenin-1-enriched RAPTOR expression” value was “suppressed”. The “oxidative metabolites, AMPK, PGC-1a, and citrate” value in the assay on HUVECs was “unchanged”.
